The values below are quoted from earlier work in patent publication US20240050377A1, “ORAL SOLID CANNABINOID OIL COMPOSITION FOR TREATING CENTRAL NERVOUS SYSTEM DISORDERS” (SOCIETE DES PRODUITS NESTLE S.A., priority 2021, published 2024).

Values joined by “and” are separate entries in the source; they are usually repeats but may differ in a detail not shown here. Equal entries are not always repeated. Where two headings read alike, the source gives them in different places.

For data set [1] the following is noted: low pH of the stomach; simulated gastric fluid.
The conditions of data set [2]: humans.

In the case of `C=C(C)[C@@H]1CCC(C)=C[C@H]1c1c(O)cc(CCCCC)cc1O` [CBD, cannabidiol], the “degradation in stomach environment” value in data set [1] is on record as “high levels of CBD degradation”. The mean half-life in data set [2] (aerosol administration) is 1.1 to 2.4 h; in data set [2] (oral lipid capsule administration), 2.95 h and 3.21 h; in data set [2] (single oral administration), 1.09 to 1.97 h.
